Test results taken from publication PMC8894159, “Paltusotine, a novel oral once-daily nonpeptide SST2 receptor agonist, suppresses GH and IGF-1 in healthy volunteers” (Pituitary, 2022).
“And” between values parts separate entries of the source, which are not always exact repeats. Equal values may be shown once. Read-outs that look alike come from different tables or passages of the source.

Experiments:
[1] = Multiple ascending dose plasma pharmacokinetics in healthy volunteers; format: in vivo, human; conditions: for Cmax / Tmax / AUC(0-t) / half-life: human, plasma, oral; for AUC(0-t): read-out: AUC0-24
Procedure: In the single-dose phase, participants were randomized 6:2 to paltusotine (1.25, 2.5, 5, 10, 20, 40, and 60 mg) or placebo in 7 cohorts (S1 to S7). Cohorts comparing oral bioavailability of solution versus capsules and the effect of a standardized high-fat, high-calorie breakfast on oral bioavailability of the capsule formulation employed the 10 mg dose level. In the multiple-dose phase, participants were randomized 6:3 to once-daily oral paltusotine capsules or placebo at doses of 5 mg for 7 days (M1, Day Last = Day 7), and 10, 20, and 30 mg daily for 10 days (M2, M3, M4, Day Last = Day 10). The initial starting dose of 1.25 mg in the single-dose phase was selected for this study based on nonclinical pharmacologic activity, pharmacokinetics, and safety studies. Subsequent doses were either specified in the protocol or were selected by the safety review committee responsible for the safety oversight of the study.
Single-dose cohorts: Plasma samples were collected on Day 1 (pre-dose, every 15 min up to 90 min post-dose, then at 2, 3, 4, 6, 8, 10, 12, 18, 24, 48, 72, 96, 120, and 144 h post-dose). Multiple-dose cohorts: For the 5 mg cohort, plasma samples were collected on Day 1 (pre-dose, every 15 min up to 90 min post-dose, then at 2, 3, 4, 6, 8, 10, 12, and 18 h post-dose), Days 2–6 (pre-dose and 2 h post-dose), Day 7 (same time points as Day 1, followed by samples at 18, 24, 48, 72, 96, 120, and 144 h post-dose). For all other multiple-dose cohorts, plasma samples were collected on Day 1 (pre-dose, every 15 min up to 90 min post-dose, then at 2, 3, 4, 6, 8, 10, 12, and 18 h post-dose), Days […] (same time points as Day 1, followed by samples at 18, 24, 48, 72, 96, 120, 144, 192, and 240 h post-dose).
Plasma pharmacokinetic sample analysis for paltusotine was determined using validated procedures by CPR Pharma Services (Thebarton, Australia). Briefly, plasma paltusotine concentrations were determined by high-pressure liquid chromatography (HPLC) coupled with tandem mass spectrometry detection (MS/MS). Deuterated paltusotine was used as an internal standard. Supported liquid extraction was used to extract paltusotine and the internal standard. The analyte was separated by HPLC using an ACE C18-AR column (Advanced Chromatography Technologies, Ltd, Aberdeen, Scotland), and the eluates were monitored by an API 4000™ LC–MS/MS System (Sciex, Framingham, MA) in positive multiple reaction monitoring mode. The extract was then assayed against a calibration curve. The data were acquired and integrated by the data acquisition software Analyst® (Sciex), linked directly to the API 4000™ LC–MS/MS System, and then processed using Watson LIMS™ software (Thermo Scientific, Waltham, MA), where applicable. The calibration range was 0.100 to 100 ng/mL using 100 μL of plasma, with a lower limit of quantification of 0.100 ng/mL. The inter-assay accuracy was 94% to 100%, and the inter-assay precision (% CV) was between 6.1% and 15%.
For assessing pharmacokinetics of paltusotine, the single-dose pharmacokinetic population included all randomized participants who received any amount of study drug with sufficient plasma concentration data. For the multiple-dose cohorts, only participants who received all doses were included. The relative bioavailability of the capsule formulation was determined by comparing its pharmacokinetic parameters with those of the solution formulation at the 10 mg dose. Food effect was determined at the same dose by comparing pharmacokinetic parameters in the fasting state to those when paltusotine was administered with a high-fat, high-calorie meal. For both formulation and food effect, ANOVA with treatment as a fixed effect and subject as a random effect was performed. Data for peak concentration (Cmax), AUC0-last, and AUC0-inf were natural log-transformed.

[2] = Safety and tolerability, single-dose cohorts; format: in vivo, human
Procedure: Adverse events and concomitant medications were recorded. Laboratory samples for clinical chemistry, hematology, coagulation tests, and urinalysis were collected under fasted conditions. Participants who discontinued prematurely attended an early termination visit.
For the safety analysis, adverse events were coded using the Medical Dictionary for Regulatory Activities (MedDRA® Version 20.0). Adverse events were grouped by preferred terms. Treatment-emergent adverse events (TEAEs) were summarized with descriptive statistics.

[3] = parameters: method as in ref 14 = [14]; 14. Madan A, Juo R, Ferrara-Cook C, Struthers RS, van Marle S, Krasner A (2020) Absorption, metabolism, excretion and absolute oral bioavailability [ 14 C]-CRN00808, an orally bioavailable, nonpeptide; conditions: cited from earlier work
[4] = 5 mg, 5 mg capsules once daily, Day 1, mean ± SD
[5] = 5 mg, 5 mg capsules once daily, Day 7, mean ± SD
[6] = 10 mg, 10 mg capsules once daily, Day 1, mean ± SD
[7] = 10 mg, 10 mg capsules once daily, Day 10, mean ± SD
[8] = 20 mg, 20 mg capsules once daily, Day 1, mean ± SD
[9] = 20 mg, 20 mg capsules once daily, Day 10, mean ± SD
[10] = 30 mg, 30 mg capsules once daily, Day 1, mean ± SD
[11] = 30 mg, 30 mg capsules once daily, Day 10, mean ± SD
[12] = single-dosing, safety population N = 41

Cl.N#Cc1cccc(-c2ccc3ncc(-c4cc(F)cc(F)c4)c(N4CCC(N)CC4)c3c2)c1O [paltusotine, 3-[4-(4-Aminopiperidin-1-yl)-3-(3,5-difluorophenyl)quinolin-6-yl]-2-hydroxybenzonitrile hydrochloride]
Ctrough ([1]; 5 mg capsules once daily, Day 7, mean ± SD): 0.0108 ± 0.00511 µg/mL | Ctrough ([1]; 10 mg capsules once daily, Day 10, mean ± SD): 0.0222 µg/mL and 0.0222 ± 0.00738 µg/mL | Ctrough ([1]; 20 mg capsules once daily, Day 10, mean ± SD): 0.0379 ± 0.0114 µg/mL | Ctrough ([1]; 30 mg capsules once daily, Day 10, mean ± SD): 0.0511 ± 0.032 µg/mL | Cmax [1, 4]: 0.0168 ± 0.00722 µg/mL | Tmax [1, 4]: 1.2 ± 0.1 h | AUC(0-t) [1, 4]: 0.167 ± 0.0734 µg·h/mL | half-life ([1]; 5 mg, 5 mg capsules once daily, Day 7, sampling to 144 h, mean ± SD, read-out: t1/2 (converted)): 34 ± 4.7 h | Cmax [1, 5]: 0.0355 ± 0.012 µg/mL | Tmax [1, 5]: 2.1 ± 0.6 h | AUC(0-t) [1, 5]: 0.421 ± 0.163 µg·h/mL | Cmax [1, 6]: 0.0787 ± 0.0453 µg/mL | Tmax [1, 6]: 1.8 ± 0.9 h | AUC(0-t) [1, 6]: 0.661 ± 0.34 µg·h/mL | half-life ([1]; 10 mg, 10 mg capsules once daily, Day 10, sampling to 240 h, mean ± SD, read-out: t1/2 (converted)): 42 ± 5 h | Cmax [1, 7]: 0.0755 ± 0.0374 µg/mL | Tmax [1, 7]: 3 ± 1.8 h | AUC(0-t) [1, 7]: 0.956 ± 0.371 µg·h/mL | Cmax [1, 8]: 0.0887 ± 0.0433 µg/mL | Tmax [1, 8]: 2.4 ± 0.8 h | AUC(0-t) [1, 8]: 0.811 ± 0.409 µg·h/mL | half-life ([1]; 20 mg, 20 mg capsules once daily, Day 10, sampling to 240 h, mean ± SD, read-out: t1/2 (converted)): 50 ± 6.6 h | Cmax [1, 9]: 0.132 ± 0.0792 µg/mL | Tmax [1, 9]: 1.6 ± 0.4 h | AUC(0-t) [1, 9]: 1.56 ± 0.733 µg·h/mL | Cmax [1, 10]: 0.0782 ± 0.0607 µg/mL | Tmax [1, 10]: 1.4 ± 0.9 h | AUC(0-t) [1, 10]: 0.578 ± 0.411 µg·h/mL | half-life ([1]; 30 mg, 30 mg capsules once daily, Day 10, sampling to 240 h, mean ± SD, read-out: t1/2 (converted)): 46 ± 7.4 h | Cmax [1, 11]: 0.154 ± 0.102 µg/mL | Tmax [1, 11]: 4.5 ± 2.1 h | AUC(0-t) [1, 11]: 2.08 ± 1.22 µg·h/mL | half-life ([1]; conclusion summary, read-out: approximate t1/2): 24 to 48 h | half-life ([1]; multiple dose 10-30 mg range, sampling to 240 h after last dose, read-out: mean t1/2): 42 to 50 h | life-threatening events or deaths ([2]; all cohorts): No life-threatening events or deaths occurred | tolerability ([2]; single-dose administration): well tolerated | share of TEAEs occurring at a dose level of 10 mg or higher ([2]; single-dose cohorts): 64% | Abdominal distension (TEAE) [2, 12]: 2 (4.9%) n (%) | Abdominal pain (TEAE) [2, 12]: 2 (4.9%) n (%) | Abdominal pain upper (TEAE) [2, 12]: 2 (4.9%) n (%) | Back pain (TEAE) [2, 12]: 2 (4.9%) n (%) | Fatigue (TEAE) [2, 12]: 2 (4.9%) n (%) | Headache (TEAE) [2, 12]: 5 n (%) | Hypoesthesia (TEAE) [2, 12]: 2 (4.9%) n (%) | Nausea (TEAE) [2, 12]: 2 (4.9%) n (%) | Participants with at least 1 TEAE [2, 12]: 28 (68.3%) n (%) | Tension headache (TEAE) [2, 12]: 2 (4.9%) n (%) | Ventricular tachycardia (non-sustained) (TEAE) [2, 12]: 2 (4.9%) n (%) | Headache (TEAE) ([2]; single-dosing, safety population N = 41, listed as Paltusotine): 5 (12.2%) n (%) | oral bioavailability in animals [3]: high oral bioavailability
